Source: US12673947B2 (Cytosinlab Therapeutics Co., Ltd., priority 2020, dated 2026)

Key:
MV4;11 cells = assay: MV4;11 in vitro inhibition of proliferation assay (CellTiter-Glo, 72 hours); assay type: cell-based; conditions: Homo sapiens, MV4-11, 72 h, IC50 class, read-out: Inhibitory activity of cell proliferation MV4;11
Outline: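 MV4;11 cells in IMDM/10% FBS, 2000 per well, were exposed to 9-point 3-fold DMSO dilutions from 10 uM (final DMSO 0.3%) in triplicate for 72 hours at 37° C., 5% CO2. Viability was read by CellTiter-Glo luminescence, and IC50 came from a four-parameter fit of inhibition.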

FLT3 = target: T1, FLT3 (Homo sapiens, UniProt P36888); assay: FLT3 kinase in vitro inhibitory activity experiment (Caliper mobility shift, conversion rate); assay type: biochemical; conditions: IC50 class, read-out: Enzyme activity FLT3
T1 construct: purchased Carna 08-145
T1 sequence (P36888 27-993): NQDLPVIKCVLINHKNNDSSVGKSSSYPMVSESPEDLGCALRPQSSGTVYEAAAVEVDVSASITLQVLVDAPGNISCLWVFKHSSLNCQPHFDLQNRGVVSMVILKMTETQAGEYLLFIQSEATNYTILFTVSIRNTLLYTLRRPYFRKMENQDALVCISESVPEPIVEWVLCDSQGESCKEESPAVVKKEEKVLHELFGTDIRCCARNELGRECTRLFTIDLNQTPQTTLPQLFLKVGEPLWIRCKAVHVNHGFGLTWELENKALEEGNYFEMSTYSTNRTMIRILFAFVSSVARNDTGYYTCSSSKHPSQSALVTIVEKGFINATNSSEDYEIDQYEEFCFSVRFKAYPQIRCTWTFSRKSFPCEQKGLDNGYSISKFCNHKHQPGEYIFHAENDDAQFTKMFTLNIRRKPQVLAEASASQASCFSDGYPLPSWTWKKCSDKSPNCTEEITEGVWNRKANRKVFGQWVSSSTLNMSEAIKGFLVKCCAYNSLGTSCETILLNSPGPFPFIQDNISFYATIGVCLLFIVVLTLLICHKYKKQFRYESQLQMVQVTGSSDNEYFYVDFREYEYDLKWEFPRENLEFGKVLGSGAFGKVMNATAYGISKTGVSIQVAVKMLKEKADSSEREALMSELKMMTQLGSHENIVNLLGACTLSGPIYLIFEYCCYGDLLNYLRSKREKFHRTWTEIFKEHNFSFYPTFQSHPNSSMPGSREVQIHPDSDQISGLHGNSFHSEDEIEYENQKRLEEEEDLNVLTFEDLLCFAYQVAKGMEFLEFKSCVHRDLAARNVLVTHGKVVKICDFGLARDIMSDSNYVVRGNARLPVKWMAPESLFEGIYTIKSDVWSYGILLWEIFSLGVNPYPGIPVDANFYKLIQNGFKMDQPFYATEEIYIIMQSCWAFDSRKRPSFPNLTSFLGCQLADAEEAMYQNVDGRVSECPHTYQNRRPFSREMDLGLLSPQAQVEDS
Outline: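 FLT3 was pre-incubated with compound for 10 min at room temperature, then the reaction was started with ATP plus Kinase substrate 2 and run 30 min at room temperature before stop solution. Substrate conversion was read by Caliper mobility shift.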

| Compound | IC50 (MV4;11 cells) | IC50 (FLT3) |
| --- | --- | --- |
| CCc1nc2c(N)ncc(-c3ccc(N4CCC(N5C6CCC5CN(C)C6)CC4)c(OC)c3)c2nc1NC1CCOCC1 [Compound 327, 3-ethyl-8-(3-methoxy-4-(4-(3-methyl-3,8-diazabicyclo[3.2.1]octyl-8-yl)piperidin-1-yl)phenyl)-N2-(tetrahydro-2H-pyran-4-yl)pyridino[3,4-b]pyrazine-2,5-diamine] | 0.01 to 0.1 µM | ≤ 0.01 µM |
| CCc1nc2c(N)ncc(-c3ccc(N4CCC(N5CCC(C)(O)CC5)CC4)c(OC)c3)c2nc1NC1CCOCC1 [Compound 328] | 0.01 to 0.1 µM | ≤ 0.01 µM |
| CCc1nc2c(N)ncc(-c3cnn(-c4ccc(C(C)(C)O)nc4)c3)c2nc1N[C@@H]1CC[C@H](O)C1 [Compound 329] | ≤ 0.01 µM | ≤ 0.01 µM |
| CCc1nc2c(N)ncc(-c3cnn(-c4ncc(C(C)(C)O)cn4)c3)c2nc1N[C@@H]1CC[C@H](O)C1 [Compound 330] | 0.01 to 0.1 µM | ≤ 0.01 µM |
| CCc1nc2c(N)ncc(-c3cnn(-c4cnc(C(C)(C)O)nc4)c3)c2nc1N[C@@H]1CC[C@H](O)C1 [Compound 331] | ≤ 0.01 µM | ≤ 0.01 µM |
| CCc1nc2c(N)ncc(-c3cnn(-c4cnc(C(C)(C)O)cn4)c3)c2nc1N[C@@H]1CC[C@H](O)C1 [Compound 332] | ≤ 0.01 µM | ≤ 0.01 µM |
| CCc1nc2c(N)ncc(-c3cnn(-c4ccc(C(C)(C)O)cc4)c3)c2nc1N[C@@H]1CC[C@H](O)C1 [Compound 333] | ≤ 0.01 µM | ≤ 0.01 µM |
| CCc1nc2c(N)ncc(-c3cnn(-c4ncc(C#N)cn4)c3)c2nc1N[C@@H]1CC[C@H](O)C1 [Compound 335] | ≤ 0.01 µM | ≤ 0.01 µM |
| CCc1nc2c(N)ncc(-c3cnn(-c4ccc(C#N)cc4)c3)c2nc1N[C@@H]1CC[C@H](O)C1 [Compound 336] | ≤ 0.01 µM | ≤ 0.01 µM |
| CCc1nc2c(N)ncc(-c3cnn(-c4ccc(C#N)nn4)c3)c2nc1N[C@@H]1CC[C@H](O)C1 [Compound 337] | 0.01 to 0.1 µM | ≤ 0.01 µM |
| CCc1nc2c(N)ncc(-c3cnn(-c4cnc(C#N)nc4)c3)c2nc1N[C@@H]1CC[C@H](O)C1 [Compound 338] | ≤ 0.01 µM | ≤ 0.01 µM |
| CCc1nc2c(N)ncc(-c3cnn(-c4cnc(C#N)cn4)c3)c2nc1N[C@@H]1CC[C@H](O)C1 [Compound 339] | 0.01 to 0.1 µM | ≤ 0.01 µM |
| CCc1nc2c(N)ncc(-c3cnn(-c4ccc(C(F)F)nc4)c3)c2nc1N[C@@H]1CC[C@H](O)C1 [Compound 340] | 0.01 to 0.1 µM | ≤ 0.01 µM |
| CCc1nc2c(N)ncc(-c3cnn(-c4ncc(F)cn4)c3)c2nc1N[C@@H]1CC[C@H](O)C1 [Compound 341] | ≤ 0.01 µM | ≤ 0.01 µM |
| CCc1nc2c(N)ncc(-c3cnn(-c4ccc(F)c(F)c4)c3)c2nc1N[C@@H]1CC[C@H](O)C1 [Compound 342] | 0.01 to 0.1 µM | ≤ 0.01 µM |
| CCc1nc2c(N)ncc(-c3cnn(-c4ccnc(F)c4)c3)c2nc1N[C@@H]1CC[C@H](O)C1 [Compound 343] | ≤ 0.01 µM | ≤ 0.01 µM |

| Compound | IC50 (MV4;11 cells) | IC50 (FLT3) |
| --- | --- | --- |
| CCc1nc2c(N)ncc(-c3cnn(-c4ncc(OC(C)C)cn4)c3)c2nc1N[C@@H]1CC[C@H](O)C1 [Compound 344] | ≤ 0.01 µM | ≤ 0.01 µM |
| CCc1nc2c(N)ncc(-c3cnn(-c4ccnc(Cl)c4)c3)c2nc1N[C@@H]1CC[C@H](O)C1 [Compound 345] | ≤ 0.01 µM | ≤ 0.01 µM |
| CCc1nc2c(N)ncc(-c3cnn(-c4ncc(C#N)cn4)c3)c2nc1NC1CCOCC1 [Compound 346] | 0.01 to 0.1 µM | ≤ 0.01 µM |
| CCc1nc2c(N)ncc(-c3cnn(-c4ccc(C(C)(C)O)nc4)c3)c2nc1NC1CCOCC1 [Compound 347] | 0.01 to 0.1 µM | ≤ 0.01 µM |
| CCc1nc2c(N)ncc(-c3cnn(-c4ncc(C(C)(C)O)cn4)c3)c2nc1NC1CCOCC1 [Compound 348] | 0.01 to 0.1 µM | ≤ 0.01 µM |
| CCc1nc2c(N)ncc(-c3cnn(-c4cnc(C(C)(C)O)nc4)c3)c2nc1NC1CCOCC1 [Compound 349] | 0.01 to 0.1 µM | ≤ 0.01 µM |
| CCc1nc2c(N)ncc(-c3cnn(-c4ccc(CNC)cc4)c3)c2nc1NC1CCOCC1 [Compound 350] | ≤ 0.01 µM | ≤ 0.01 µM |
| CCc1nc2c(N)ncc(-c3cnn(-c4ccc(C(C)(C)C)cc4)c3)c2nc1N[C@@H]1CC[C@H](O)C1 [Compound 351] | 0.01 to 0.1 µM | ≤ 0.01 µM |
| CCc1nc2c(N)ncc(-c3cnn(-c4nccc(C(C)(C)O)n4)c3)c2nc1N[C@@H]1CC[C@H](O)C1 [Compound 352] | 0.01 to 0.1 µM | ≤ 0.01 µM |
| CCc1nc2c(N)ncc(-c3cnn(-c4ccc(C#N)c(F)c4)c3)c2nc1N[C@@H]1CC[C@H](O)C1 [Compound 353] | 0.01 to 0.1 µM | ≤ 0.01 µM |
| CCc1nc2c(N)ncc(-c3cnn(-c4ccc(C(C)(C)O)nn4)c3)c2nc1N[C@@H]1CC[C@H](O)C1 [Compound 354] | 0.01 to 0.1 µM | ≤ 0.01 µM |
| CCc1nc2c(N)ncc(-c3cnn(-c4ccc(C(C)(C)O)c(F)c4)c3)c2nc1N[C@@H]1CC[C@H](O)C1 [Compound 355] | ≤ 0.01 µM | ≤ 0.01 µM |
| CCc1nc2c(N)ncc(-c3cnn(-c4cnc(C(C)(C)O)nc4)c3)c2nc1N[C@@H]1CC[C@@H](O)C1 [Compound 356] | 0.01 to 0.1 µM | ≤ 0.01 µM |
| CCc1nc2c(N)ncc(-c3cnn(-c4ccc5c(c4)CCO5)c3)c2nc1N[C@@H]1CC[C@H](O)C1 [Compound 357] | ≤ 0.01 µM | ≤ 0.01 µM |
| CCc1nc2c(N)ncc(-c3ccc(NCCNC(=O)[C@H](C)N(C)C(=O)/C=C/CN(C)C)c(OC)c3)c2nc1NC1CCOCC1 [Compound 358, (S,E)-N-(1-((2-((4-(5-amino-3-ethyl-2-((tetrahydro-2H-pyran-4-yl)amino)pyridino[3,4b]pyrazine-8-yl)-2-methoxyphenyl)amino)ethyl)amino)-1-oxopropane-2-yl)-4-(dimethylamino)-N-methylbutyl-2-enamide] | 0.1 to 0.5 µM | 0.01 to 0.1 µM |
